Results published in patent US20240246960A1 (adMare Therapeutics Society, priority 2021, published 2024).
Like-named read-outs stand apart in the source and are kept apart here.

Experiments:
DNA-PK = target: T1, DNA-PK (Homo sapiens, UniProt P78527); experiment: DNA-PK Assay for Biochemical Enzymatic Inhibition (ADP Glo Kinase assay); conditions: Table 1
T1 construct: purchased Invitrogen PR9107A
Summary of the method: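 Human DNA-PK (25 ng) preincubated 15 min with compounds (ten three-fold dilutions) in HEPES pH 7.5, MgCl2, KCl, calf thymus DNA buffer, then substrate 434.4 μM and ATP 64.4 μM (final) for 60 min at room temperature. ADP-Glo luminescence; percent inhibition fitted by four-parameter regression for IC50.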

[1] = target: T2, DNA-PK phosphorylation at Serine 2056 (Homo sapiens, UniProt P78527); experiment: Cellular Assay for Inhibition of DNA-PK Phosphorylation at Serine 2056 (FaDu cells, neocarzinostatin, sandwich ELISA); assay type: cell-based; conditions: Table 1
T2 construct: host or cells: FaDu
Summary of the method: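 Readout was pSer2056 and total DNA-PK, measured by sandwich ELISA on protein-normalized lysates. Prior to lysis, compound was applied to FaDu cells for 1 h (0.3% DMSO), followed by 2 h of 1 μg/mL neocarzinostatin. IC50 values were fitted from log concentration versus % inhibition normalized to DMSO and NCS controls.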

[2] = Microsomal stability assay, mouse liver microsomes; conditions: for microsomal CLint at 0.1 uM: male, CD-1, mouse, liver microsomes, pH 7.4, Microsomal Stability Mouse Clint, 0.1 mg/mL microsomes, 0.1 uM compound
[3] = target: T3, pDNA-PK ser2056 induction in HCT116 spheroids (Homo sapiens, UniProt P78527); experiment: Multicellular tumour spheroid + radiation, pDNA-PK inhibition, HCT116; assay type: cell-based; conditions: 20 Gy
T3 construct: endogenous in cells; host or cells: HCT116 multicellular tumour spheroids
Summary of the method: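 EC50 (μM) is concentration halving radiation-induced pDNA-PK ser2056, scored by fluorescent immunostaining of cryosections 2 h after 20 Gy. HCT116 tumour spheroids (~0.5 mm, stirred, 20% O2/5% CO2, 37 °C) exposed to serial dilutions from 10 or 5 μM to 3.5 nM starting 1 h before irradiation.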

[4] = Example 7, spheroid, cell line HCT115 [sic], 20% O2, read-out: EC50 (pDNA-PK inhibition, immunohistochemical endpoint)
[5] = Example 8, spheroid, read-out: Cell line: HCT116 Immunohistochemical endpoint pDNA-PK inhibition EC50
[6] = Example 9 Study 2, 20% O2, read-out: Spheroid Cell line: HCT116 Immunohistochemical endpoint pDNA-PK inhibition EC50

COc1cnc(N[C@H]2CC[C@@H](Oc3nc(N4CCOCC4)cc4ncccc34)CC2)nc1 [Compound 20c, 5-Methoxy-N-((1s,4s)-4-((7-morpholino-1,6-naphthyridin-5-yl)oxy)cyclohexyl)pyrimidin-2-amine]
IC50 (DNA-PK): 0.001 to 0.01 µM | IC50 [1]: < 0.1 µM | Microsomal Stability (mouse) % rem. 60 min [2]: E (% remaining = 0-25%) | microsomal CLint at 0.1 uM [2]: > 116 µL/min/mg | EC50 [3, 4]: 0.5 to 1 µM | EC50 [3, 5]: 0.5 to 1 µM | EC50 [3, 6]: 0.5 to 1 µM

c1cncc(N[C@H]2CC[C@@H](Oc3nc(N4CCOCC4)cc4ncccc34)CC2)c1 [Compound 26, N-((1s,4s)-4-((7-morpholino-1,6-naphthyridin-5-yl)oxy)cyclohexyl)pyridin-3-amine]
IC50 (DNA-PK): 0.0005 to 0.001 µM | IC50 [1]: 0.1 to 1 µM | Microsomal Stability (mouse) % rem. 60 min [2]: E (% remaining = 0-25%) | microsomal CLint at 0.1 uM [2]: > 116 µL/min/mg | EC50 [3, 4]: 1 to 10 µM | EC50 [3, 5]: 1 to 10 µM | EC50 [3, 6]: 1 to 10 µM

c1cnnc(N[C@H]2CC[C@@H](Oc3nc(N4CCOCC4)cc4ncccc34)CC2)c1 [Compound 29, N-((1s,4s)-4-((7-morpholino-1,6-naphthyridin-5-yl)oxy)cyclohexyl)pyridazin-3-amine]
IC50 (DNA-PK): < 0.0005 µM | IC50 [1]: < 0.1 µM | Microsomal Stability (mouse) % rem. 60 min [2]: E (% remaining = 0-25%) | microsomal CLint at 0.1 uM [2]: > 116 µL/min/mg | EC50 [3, 4]: 0.5 to 1 µM | EC50 [3, 6]: 0.5 to 1 µM

O=C(N[C@H]1CC[C@@H](Oc2nc(N3CCOCC3)cc3ncccc23)CC1)C1CC1 [Compound 108, N-((1s,4s)-4-((7-Morpholino-1,6-naphthyridin-5-yl)oxy)cyclohexyl)cyclopropanecarboxamide]
IC50 (DNA-PK): 0.001 to 0.01 µM | IC50 [1]: 0.1 to 1 µM | Microsomal Stability (mouse) % rem. 60 min [2]: E (% remaining = 0-25%) | microsomal CLint at 0.1 uM [2]: > 116 µL/min/mg | EC50 [3, 4]: 1 to 10 µM | EC50 [3, 5]: 1 to 10 µM | EC50 [3, 6]: 1 to 10 µM

O=C(N[C@H]1CC[C@@H](Oc2nc(N3CCOCC3)cc3ncccc23)CC1)C1(O)CC1 [Compound 109, 1-Hydroxy-N-((1s,4s)-4-((7-morpholino-1,6-naphthyridin-5-yl)oxy)cyclohexyl)cyclopropane-1-carboxamide]
IC50 (DNA-PK): 0.001 to 0.01 µM | IC50 [1]: 0.1 to 1 µM | Microsomal Stability (mouse) % rem. 60 min [2]: E (% remaining = 0-25%) | microsomal CLint at 0.1 uM [2]: > 116 µL/min/mg | EC50 [3, 4]: 10 to 100 µM | EC50 [3, 5]: 10 to 100 µM | EC50 [3, 6]: 10 to 100 µM

O=C(N[C@H]1CC[C@@H](Oc2nc(N3CCOCC3)cc3ncccc23)CC1)c1ccccn1 [Compound 114, N-((1s,4s)-4-((7-morpholino-1,6-naphthyridin-5-yl)oxy)cyclohexyl)picolinamide]
IC50 (DNA-PK): 0.0005 to 0.001 µM | IC50 [1]: 0.1 to 1 µM | Microsomal Stability (mouse) % rem. 60 min [2]: E (% remaining = 0-25%) | microsomal CLint at 0.1 uM [2]: > 116 µL/min/mg | EC50 [3, 4]: 1 to 10 µM | EC50 [3, 6]: 1 to 10 µM

O=C(N[C@H]1CC[C@@H](Oc2nc(N3CCOCC3)cc3ncccc23)CC1)c1ccc(Cl)nc1 [Compound 116, 6-chloro-N-((1s,4s)-4-((7-morpholino-1,6-naphthyridin-5-yl)oxy)cyclohexyl)nicotinamide]
IC50 (DNA-PK): 0.0005 to 0.001 µM | IC50 [1]: 0.1 to 1 µM | Microsomal Stability (mouse) % rem. 60 min [2]: F (% remaining = 25-50%) | microsomal CLint at 0.1 uM [2]: > 116 µL/min/mg | EC50 [3, 4]: 1 to 10 µM | EC50 [3, 6]: 1 to 10 µM

O=C(N[C@H]1CC[C@@H](Oc2nc(N3CCOCC3)cc3ncccc23)CC1)c1cnccn1 [Compound 119, N-((1s,4s)-4-((7-morpholino-1,6-naphthyridin-5-yl)oxy)cyclohexyl)pyrazine-2-carboxamide]
IC50 (DNA-PK): 0.0005 to 0.001 µM | IC50 [1]: 0.1 to 1 µM | Microsomal Stability (mouse) % rem. 60 min [2]: E (% remaining = 0-25%) | microsomal CLint at 0.1 uM [2]: > 116 µL/min/mg | EC50 [3, 4]: 1 to 10 µM | EC50 [3, 6]: 1 to 10 µM

O=C(N[C@H]1CC[C@@H](Oc2nc(N3CCOCC3)cc3ncccc23)CC1)c1ncc(Cl)cn1 [Compound 124, 5-chloro-N-((1s,4s)-4-((7-morpholino-1,6-naphthyridin-5-yl)oxy)cyclohexyl)pyrimidine-2-carboxamide]
IC50 (DNA-PK): 0.0005 to 0.001 µM | IC50 [1]: 0.1 to 1 µM | Microsomal Stability (mouse) % rem. 60 min [2]: F (% remaining = 25-50%) | microsomal CLint at 0.1 uM [2]: > 116 µL/min/mg | EC50 [3, 4]: 1 to 10 µM | EC50 [3, 6]: 1 to 10 µM

Cc1ccnc(C(=O)N[C@H]2CC[C@@H](Oc3nc(N4CCOCC4)cc4ncccc34)CC2)n1 [Compound 127]
IC50 (DNA-PK): 0.0005 to 0.001 µM | IC50 [1]: 0.1 to 1 µM | Microsomal Stability (mouse) % rem. 60 min [2]: F (% remaining = 25-50%) | microsomal CLint at 0.1 uM [2]: > 116 µL/min/mg | EC50 [3, 4]: 1 to 10 µM | EC50 [3, 6]: 1 to 10 µM

Cc1cnc(C(=O)N[C@H]2CC[C@@H](Oc3nc(N4CCOCC4)cc4ncccc34)CC2)nc1 [Compound 128, 5-methyl-N-((1s,4s)-4-((7-morpholino-1,6-naphthyridin-5-yl)oxy)cyclohexyl)pyrimidine-2-carboxamide]
IC50 (DNA-PK): 0.0005 to 0.001 µM | IC50 [1]: 0.1 to 1 µM | Microsomal Stability (mouse) % rem. 60 min [2]: F (% remaining = 25-50%) | microsomal CLint at 0.1 uM [2]: > 116 µL/min/mg | EC50 [3, 4]: 1 to 10 µM | EC50 [3, 6]: 1 to 10 µM

O=C(N[C@H]1CC[C@@H](Oc2nc(N3CCOCC3)cc3ncccc23)CC1)n1cccn1 [Compound 136, N-((1s,4s)-4-((7-morpholino-1,6-naphthyridin-5-yl)oxy)cyclohexyl)-1H-pyrazole-1-carboxamide]
IC50 (DNA-PK): 0.0005 to 0.001 µM | IC50 [1]: 0.1 to 1 µM | Microsomal Stability (mouse) % rem. 60 min [2]: E (% remaining = 0-25%) | microsomal CLint at 0.1 uM [2]: > 116 µL/min/mg | EC50 [3, 4]: 1 to 10 µM | EC50 [3, 6]: 1 to 10 µM

O=C(N[C@H]1CC[C@@H](Oc2nc(N3CCOCC3)cc3ncccc23)CC1)c1cc[nH]n1 [Compound 138, N-((1s,4s)-4-((7-morpholino-1,6-naphthyridin-5-yl)oxy)cyclohexyl)-1H-pyrazole-3-carboxamide]
IC50 (DNA-PK): 0.0005 to 0.001 µM | IC50 [1]: 0.1 to 1 µM | Microsomal Stability (mouse) % rem. 60 min [2]: E (% remaining = 0-25%) | microsomal CLint at 0.1 uM [2]: > 116 µL/min/mg | EC50 [3, 4]: 0.5 to 1 µM | EC50 [3, 6]: 0.5 to 1 µM

O=C(N[C@H]1CC[C@@H](Oc2nc(N3CCOCC3)cc3ncccc23)CC1)c1scnc1Cl [Compound 139, 4-chloro-N-((1s,4s)-4-((7-morpholino-1,6-naphthyridin-5-yl)oxy)cyclohexyl)thiazole-5-carboxamide]
IC50 (DNA-PK): 0.001 to 0.01 µM | IC50 [1]: 0.1 to 1 µM | Microsomal Stability (mouse) % rem. 60 min [2]: G (% remaining = 50-75%) | microsomal CLint at 0.1 uM [2]: < 116 µL/min/mg | EC50 [3, 4]: 10 to 100 µM | EC50 [3, 6]: 10 to 100 µM

O=C(N[C@H]1CC[C@@H](Oc2nc(N3CCOCC3)cc3ncccc23)CC1)c1ncc[nH]1 [Compound 143, N-((1s,4s)-4-((7-morpholino-1,6-naphthyridin-5-yl)oxy)cyclohexyl)-1H-imidazole-2-carboxamide]
IC50 (DNA-PK): < 0.0005 µM | IC50 [1]: < 0.1 µM | Microsomal Stability (mouse) % rem. 60 min [2]: E (% remaining = 0-25%) | microsomal CLint at 0.1 uM [2]: > 116 µL/min/mg | EC50 [3, 4]: 0.5 to 1 µM | EC50 [3, 6]: 0.5 to 1 µM

O=C(N[C@H]1CC[C@@H](Oc2nc(N3CCOCC3)cc3ncccc23)CC1)c1ccc[nH]1 [Compound 145]
IC50 (DNA-PK): 0.0005 to 0.001 µM | IC50 [1]: < 0.1 µM | Microsomal Stability (mouse) % rem. 60 min [2]: E (% remaining = 0-25%) | microsomal CLint at 0.1 uM [2]: > 116 µL/min/mg | EC50 [3, 4]: 0.01 to 0.5 µM | EC50 [3, 6]: 0.01 to 0.5 µM

Nc1cnc2cc(N3CCOCC3)nc(O[C@H]3CC[C@@H](Nc4ncccn4)CC3)c2c1 [Compound 184, 7-morpholino-5-(((1s,4s)-4-(pyrimidin-2-ylamino)cyclohexyl)oxy)-1,6-naphthyridin-3-amine]
IC50 (DNA-PK): < 0.0005 µM | IC50 [1]: < 0.1 µM | Microsomal Stability (mouse) % rem. 60 min [2]: E (% remaining = 0-25%) | microsomal CLint at 0.1 uM [2]: > 116 µL/min/mg | EC50 [3, 4]: 1 to 10 µM | EC50 [3, 6]: 1 to 10 µM
